Source: ChEMBL document CHEMBL1201862, “PubChem BioAssay data set” (2004)
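Grown in 96-well plates, cells were treated for 48 hours with each compound at five concentrations. Insufficient inhibition: endpoint recorded as highest concentration tested. GI50 is the concentration that inhibits growth by half.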 Active and inactive are the calls of the source. Cut-off read from the data, not from the text of the source: active = GI50 up to about 1.1 µM and inactive = higher.

Key:
Assay in all cases: NCI tumour cell line growth inhibition, 48 h
[1] = tested on: SN12C
[2] = tested on: SNB-75
[3] = tested on: MCF7
[4] = tested on: TK-10
[5] = tested on: Hs-578T
[6] = tested on: CAKI-1
[7] = tested on: PC-3
[8] = tested on: ACHN
[9] = tested on: MDA-MB-231
[10] = tested on: RXF 393
[11] = tested on: M14
[12] = tested on: IGROV-1
[13] = tested on: SR
[14] = tested on: T47D
[15] = tested on: DU-145
[16] = tested on: MDA-MB-435
[17] = tested on: HOP-18
[18] = tested on: DMS-114
[19] = tested on: XF498
[20] = tested on: DMS-273

Measured: GI50

Brc1ccc2c(c1)[C@H]1CCc3c([nH]c4ccccc34)[C@H]1N2
active: [12] 0.369 µM | [13] 0.889 µM
inactive: [1] 13 µM | [2] 21.3 µM | [3] 3.42 µM | [4] 11.2 µM | [5] 25.4 µM | [6] 10.2 µM | [7] 5.9 µM | [8] 12.5 µM | [9] 1.6 µM | [10] 12 µM | [11] 13.2 µM | [14] 3.11 µM | [15] 12.9 µM | [16] 13.4 µM

COC(=O)/C=C\n1ncc(=O)[nH]c1=O
inactive: [1] > 100 µM | [2] > 100 µM | [4] > 100 µM | [5] > 100 µM | [6] > 100 µM | [7] > 100 µM | [8] > 100 µM | [9] > 100 µM | [11] > 100 µM | [12] > 100 µM | [13] > 10 µM | [14] > 100 µM | [15] > 100 µM | [16] 99.5 µM

C=C(C)C1Cc2c(c3ccccc3n(C)c2=O)O1 (stereo unspecified)
inactive: [1] > 100 µM | [2] > 100 µM | [4] > 100 µM | [6] > 100 µM | [8] > 100 µM | [11] > 100 µM | [17] > 100 µM | [18] > 100 µM | [12] > 100 µM

CC(=O)Nc1ccc(Sc2nnc(NC(C)=O)s2)cc1
inactive: [1] > 100 µM | [2] > 100 µM | [3] > 100 µM | [4] > 100 µM | [5] > 100 µM | [7] > 100 µM | [8] > 100 µM | [9] > 100 µM | [11] > 100 µM | [12] > 100 µM | [13] > 100 µM | [14] > 100 µM | [16] > 100 µM

CN(C)CCCNC(=O)N/N=C\c1cccc2ccccc12
inactive: [1] > 10 µM | [2] > 10 µM | [3] > 10 µM | [4] > 10 µM | [5] > 10 µM | [7] > 10 µM | [8] > 10 µM | [9] > 10 µM | [10] > 10 µM | [11] > 10 µM | [12] > 10 µM | [13] > 10 µM | [14] > 10 µM | [15] > 10 µM

CN(CCO)/N=N/c1[nH]cnc1C(N)=O
inactive: [1] > 100 µM | [2] 26.8 µM | [4] 49.2 µM | [8] > 100 µM | [10] > 100 µM | [11] 37.8 µM | [18] > 100 µM | [19] 82.2 µM | [20] 49.9 µM | [12] > 100 µM | [13] 39.7 µM

CN(C)CCNC(=O)c1cccc2c(=O)c3ccccc3oc12
inactive: [1] 24.3 µM | [2] 32.4 µM | [3] 26.7 µM | [10] 43.1 µM | [17] 48 µM | [18] 28.1 µM | [19] 31.3 µM | [20] 28.8 µM | [12] 40.6 µM

COc1cc(C2c3cc4c(cc3[C@@H](Nc3ccccc3)C3COC(=O)[C@H]23)OCO4)cc(OC)c1O (stereo partly specified)
active: [1] 0.485 µM | [2] 0.875 µM | [3] 0.0715 µM | [6] 0.134 µM | [17] 0.853 µM | [18] 0.687 µM | [19] 1.03 µM | [20] 0.142 µM
inactive: [10] 1.73 µM | [12] 2.21 µM
